Reference: the NIST ThermoML archive (doi:10.1021/acs.jced.8b00160)
± gives the expanded uncertainty stated by the source.

Key:
[1] = wn = mass fraction of the nth substance listed; conditions: 100 kPa, Liquid, Vibrating tube method
[2] = refractive index (Na D-line) (dimensionless); wn = mass fraction of the nth substance listed; conditions: 100 kPa, Liquid, Standard Abbe refractometry
[3] = refractive index (Na D-line) (dimensionless); conditions: 100 kPa, Liquid, Standard Abbe refractometry

O=P([O-])([O-])O.[K+].[K+] [dipotassium hydrogen phosphate] + O
mass density ([1]; 298.15 K, w1 = 0.02): 1014.3 ± 20 kg/m3 | mass density ([1]; 298.15 K, w1 = 0.05): 1040.9 ± 20 kg/m3 | mass density ([1]; 298.15 K, w1 = 0.1): 1086.7 ± 20 kg/m3 | mass density ([1]; 298.15 K, w1 = 0.15): 1134 ± 20 kg/m3 | mass density ([1]; 298.15 K, w1 = 0.2): 1183.1 ± 20 kg/m3 | mass density ([1]; 298.15 K, w1 = 0.25): 1234.3 ± 20 kg/m3 | mass density ([1]; 298.15 K, w1 = 0.3): 1287.3 ± 20 kg/m3 | refractive index ([2]; 298.15 K, w1 = 0.02): 1.336 ± 0.002 | refractive index ([2]; 298.15 K, w1 = 0.05): 1.3401 ± 0.002 | refractive index ([2]; 298.15 K, w1 = 0.1): 1.3478 ± 0.002 | refractive index ([2]; 298.15 K, w1 = 0.15): 1.3551 ± 0.002 | refractive index ([2]; 298.15 K, w1 = 0.2): 1.3626 ± 0.002 | refractive index ([2]; 298.15 K, w1 = 0.25): 1.3697 ± 0.002 | refractive index ([2]; 298.15 K, w1 = 0.3): 1.3774 ± 0.002

CC(C)O [propan-2-ol] + O
mass density ([1]; 298.15 K, w1 = 0.1): 979.9 ± 20 kg/m3 | mass density ([1]; 298.15 K, w1 = 0.2): 966.6 ± 20 kg/m3 | mass density ([1]; 298.15 K, w1 = 0.3): 946 ± 20 kg/m3 | mass density ([1]; 298.15 K, w1 = 0.4): 925.7 ± 20 kg/m3 | mass density ([1]; 298.15 K, w1 = 0.5): 901.7 ± 20 kg/m3 | mass density ([1]; 298.15 K, w1 = 0.6): 879 ± 20 kg/m3 | mass density ([1]; 308.15 K, w1 = 0.1): 976.9 ± 20 kg/m3 | mass density ([1]; 308.15 K, w1 = 0.2): 958.7 ± 20 kg/m3 | mass density ([1]; 308.15 K, w1 = 0.3): 941.9 ± 20 kg/m3 | mass density ([1]; 308.15 K, w1 = 0.4): 916.8 ± 20 kg/m3 | mass density ([1]; 308.15 K, w1 = 0.5): 896.2 ± 20 kg/m3 | mass density ([1]; 308.15 K, w1 = 0.6): 871.6 ± 20 kg/m3 | mass density ([1]; 318.15 K, w1 = 0.1): 973.7 ± 20 kg/m3 | mass density ([1]; 318.15 K, w1 = 0.2): 954.8 ± 20 kg/m3 | mass density ([1]; 318.15 K, w1 = 0.3): 934.4 ± 20 kg/m3 | mass density ([1]; 318.15 K, w1 = 0.4): 911.5 ± 20 kg/m3 | mass density ([1]; 318.15 K, w1 = 0.5): 887.6 ± 20 kg/m3 | mass density ([1]; 318.15 K, w1 = 0.6): 862.4 ± 20 kg/m3 | refractive index ([2]; 298.15 K, w1 = 0.1): 1.3418 ± 0.002 | refractive index ([2]; 298.15 K, w1 = 0.2): 1.3506 ± 0.002 | refractive index ([2]; 298.15 K, w1 = 0.3): 1.3573 ± 0.002 | refractive index ([2]; 298.15 K, w1 = 0.4): 1.3629 ± 0.002 | refractive index ([2]; 298.15 K, w1 = 0.5): 1.367 ± 0.002 | refractive index ([2]; 298.15 K, w1 = 0.6): 1.3705 ± 0.002 | refractive index ([2]; 308.15 K, w1 = 0.1): 1.3372 ± 0.002 | refractive index ([2]; 308.15 K, w1 = 0.2): 1.3475 ± 0.002 | refractive index ([2]; 308.15 K, w1 = 0.3): 1.3559 ± 0.002 | refractive index ([2]; 308.15 K, w1 = 0.4): 1.3623 ± 0.002 | refractive index ([2]; 308.15 K, w1 = 0.5): 1.3668 ± 0.002 | refractive index ([2]; 308.15 K, w1 = 0.6): 1.3694 ± 0.002 | refractive index ([2]; 318.15 K, w1 = 0.1): 1.3356 ± 0.002 | refractive index ([2]; 318.15 K, w1 = 0.2): 1.3447 ± 0.002 | refractive index ([2]; 318.15 K, w1 = 0.3): 1.3531 ± 0.002 | refractive index ([2]; 318.15 K, w1 = 0.4): 1.3596 ± 0.002 | refractive index ([2]; 318.15 K, w1 = 0.5): 1.3643 ± 0.002 | refractive index ([2]; 318.15 K, w1 = 0.6): 1.3679 ± 0.002

O=P([O-])([O-])[O-].[K+].[K+].[K+] [tripotassium phosphate] + O
mass density ([1]; 298.15 K, w1 = 0.02): 1015.8 ± 20 kg/m3 | mass density ([1]; 298.15 K, w1 = 0.05): 1048.6 ± 20 kg/m3 | mass density ([1]; 298.15 K, w1 = 0.1): 1106.7 ± 20 kg/m3 | mass density ([1]; 298.15 K, w1 = 0.15): 1176.8 ± 20 kg/m3 | mass density ([1]; 298.15 K, w1 = 0.2): 1203.4 ± 20 kg/m3 | mass density ([1]; 298.15 K, w1 = 0.25): 1226.9 ± 20 kg/m3 | mass density ([1]; 298.15 K, w1 = 0.3): 1241.7 ± 20 kg/m3 | mass density ([1]; 308.15 K, w1 = 0.02): 1011.9 ± 20 kg/m3 | mass density ([1]; 308.15 K, w1 = 0.05): 1045 ± 20 kg/m3 | mass density ([1]; 308.15 K, w1 = 0.1): 1102.7 ± 20 kg/m3 | mass density ([1]; 308.15 K, w1 = 0.15): 1172.6 ± 20 kg/m3 | mass density ([1]; 308.15 K, w1 = 0.2): 1199.8 ± 20 kg/m3 | mass density ([1]; 308.15 K, w1 = 0.25): 1223.5 ± 20 kg/m3 | mass density ([1]; 308.15 K, w1 = 0.3): 1237.1 ± 20 kg/m3 | mass density ([1]; 318.15 K, w1 = 0.02): 1008.3 ± 20 kg/m3 | mass density ([1]; 318.15 K, w1 = 0.05): 1040.4 ± 20 kg/m3 | mass density ([1]; 318.15 K, w1 = 0.1): 1100.3 ± 20 kg/m3 | mass density ([1]; 318.15 K, w1 = 0.15): 1171.1 ± 20 kg/m3 | mass density ([1]; 318.15 K, w1 = 0.2): 1194.9 ± 20 kg/m3 | mass density ([1]; 318.15 K, w1 = 0.25): 1218 ± 20 kg/m3 | mass density ([1]; 318.15 K, w1 = 0.3): 1231.8 ± 20 kg/m3 | refractive index ([2]; 298.15 K, w1 = 0.02): 1.3356 ± 0.002 | refractive index ([2]; 298.15 K, w1 = 0.05): 1.3413 ± 0.002 | refractive index ([2]; 298.15 K, w1 = 0.1): 1.3537 ± 0.002 | refractive index ([2]; 298.15 K, w1 = 0.15): 1.3651 ± 0.002 | refractive index ([2]; 298.15 K, w1 = 0.2): 1.3792 ± 0.002 | refractive index ([2]; 298.15 K, w1 = 0.25): 1.3962 ± 0.002 | refractive index ([2]; 298.15 K, w1 = 0.3): 1.418 ± 0.002 | refractive index ([2]; 308.15 K, w1 = 0.02): 1.3346 ± 0.002 | refractive index ([2]; 308.15 K, w1 = 0.05): 1.3402 ± 0.002 | refractive index ([2]; 308.15 K, w1 = 0.1): 1.3512 ± 0.002 | refractive index ([2]; 308.15 K, w1 = 0.15): 1.3632 ± 0.002 | refractive index ([2]; 308.15 K, w1 = 0.2): 1.3768 ± 0.002 | refractive index ([2]; 308.15 K, w1 = 0.25): 1.3928 ± 0.002 | refractive index ([2]; 308.15 K, w1 = 0.3): 1.4109 ± 0.002 | refractive index ([2]; 318.15 K, w1 = 0.02): 1.3337 ± 0.002 | refractive index ([2]; 318.15 K, w1 = 0.05): 1.3386 ± 0.002 | refractive index ([2]; 318.15 K, w1 = 0.1): 1.3488 ± 0.002 | refractive index ([2]; 318.15 K, w1 = 0.15): 1.3606 ± 0.002 | refractive index ([2]; 318.15 K, w1 = 0.2): 1.3736 ± 0.002 | refractive index ([2]; 318.15 K, w1 = 0.25): 1.3885 ± 0.002 | refractive index ([2]; 318.15 K, w1 = 0.3): 1.4029 ± 0.002

O [water]
refractive index ([3]; 298.15 K): 1.3324 ± 0.002 | refractive index ([3]; 308.15 K): 1.3302 ± 0.002 | refractive index ([3]; 318.15 K): 1.3298 ± 0.002
